According to PubChem BioAssay AID1199 (EPA DSSTox, 2008):
Activity calls are given as the source filed them.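 Rule for the calls: active = a tumour-causing dose and a tumour site recorded for mice in at least one sex group; inconclusive = only government mouse studies exist and were judged inadequate; inactive = mouse studies exist but none gave tumours.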

Tested on: mouse carcinogenicity bioassay, TD50 from CPDB
Assay: DSSTox (CPDBAS) Carcinogenic Potency Database Summary Mouse Bioassay Results
Method in brief: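 Values are TD50 carcinogenic potencies from mouse chronic bioassays, taking the most positive result for each sex-species. Sources are published literature and NCI/NTP studies; target sites reflect author-reported positive findings.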

[1] = TD50_Mouse_Note: TD50 is harmonic mean of more than one positive test, TargetSites_Mouse_Female: liver, lung, stomach
[2] = TargetSites_Mouse_Female: no positive results
[3] = TD50_Mouse_Note: no positive results, TargetSites_Mouse_Female: no positive results
[4] = TD50_Mouse_Note: TD50 is harmonic mean of more than one positive test, TargetSites_Mouse_Female: stomach
[5] = TargetSites_Mouse_Female: liver
[6] = TD50_Mouse_Note: TD50 is harmonic mean of more than one positive test, TargetSites_Mouse_Female: liver
[7] = TD50_Mouse_Note: TD50 is harmonic mean of more than one positive test, TargetSites_Mouse_Female: liver, vascular system
[8] = TD50_Mouse_Note: TD50 is harmonic mean of more than one positive test, TargetSites_Mouse_Female: no positive results

Nc1c(Br)cc(Br)c2c1C(=O)c1ccccc1C2=O
Potency [1]: 1.25 mmol/kg/day

CCOc1ccc(NC(C)=O)cc1[N+](=O)[O-]
Potency [2]: 10.1 mmol/kg/day

CN(C)C(=S)[S-].CN(C)C(=S)[S-].[Cu+2]
outcome [3]: inactive; no positive results

CC(C)(Oc1ccc(C2CC2(Cl)Cl)cc1)C(=O)O (centres undefined)
Potency (TD50_Mouse_Note: TD50 is harmonic mean of more than one positive test): 0.0214 mmol/kg/day

O=NN1CCN(N=O)CC1
Potency [4]: 0.025 mmol/kg/day

O=C(O)CN(CC(=O)O)CC(=O)O
Potency (TD50_Mouse_Note: TD50 is harmonic mean of more than one positive test, TargetSites_Mouse_Female: kidney): 13.9 mmol/kg/day | outcome [3]: inactive; no positive results

CC(C)(C)NC(=O)[C@H]1CC[C@H]2[C@@H]3CC[C@H]4NC(=O)C=C[C@]4(C)[C@H]3CC[C@]12C
Potency: 0.875 mmol/kg/day

Nc1ccc(-c2ccc(N)c(N)c2)cc1N
Potency [2]: 0.8 mmol/kg/day

CN(C)C(=S)S[Se](SC(=S)N(C)C)(SC(=S)N(C)C)SC(=S)N(C)C
outcome [3]: inactive; no positive results

O=C1CCO1
Potency [4]: 0.0172 mmol/kg/day

S=C(S)NCCNC(=S)S
outcome [3]: inactive; no positive results

CCN(CC)CCOc1ccc(/C(=C(\Cl)c2ccccc2)c2ccccc2)cc1
outcome [3]: inactive

CCN(CC)C(=O)Nc1ccc(OCC(O)CNC(C)(C)C)c(C(C)=O)c1 (centres undefined)
outcome [3]: inactive; no positive results

C=Cc1cccc(C)c1
outcome [3]: inactive; no positive results

NC(=O)c1cnccn1
outcome (TD50_Mouse_Note: no positive results, TargetSites_Mouse_Female: NTP bioassay inadequate): inactive; no positive results

O=C/C=C/c1ccccc1
outcome [3]: inactive; no positive results

O.O=S(=O)([O-])[O-].[Mn+2]
outcome [3]: inactive; no positive results

S=C1NCCN1
Potency (TD50_Mouse_Note: TD50 is harmonic mean of more than one positive test, TargetSites_Mouse_Female: liver, pituitary gland, thyroid gland): 0.23 mmol/kg/day

NC(=O)c1ccccc1C(N)=O
outcome [3]: inactive; no positive results

NNC(N)=S
outcome [3]: inactive; no positive results

NS(=O)(=O)c1cc2c(cc1Cl)NCNS2(=O)=O
outcome [3]: inactive; no positive results

CC(Oc1ccc(Cl)cc1Cl)C(=O)O (centres undefined)
outcome [3]: inactive; no positive results

COc1cc(CNC(=O)CCCC/C=C/C(C)C)ccc1O
Potency (TD50_Mouse_Note: TD50 is harmonic mean of more than one positive test, no positive results are statistically significant, TargetSites_Mouse_Female: large intestine): 0.547 mmol/kg/day

Cc1cc(N)ccc1N
outcome [3]: inactive; no positive results

CCOC(=O)CC(SP(=S)(OC)OC)C(=O)OCC (centres undefined)
outcome [3]: inactive; no positive results

c1ccc2sc(SSc3nc4ccccc4s3)nc2c1
outcome [3]: inactive; no positive results

CCNC(=S)NCC
outcome [3]: inactive; no positive results

O=NN1CCCCC1
Potency: 0.0114 mmol/kg/day

O=P(OCC(Br)CBr)(OCC(Br)CBr)OCC(Br)CBr (centres undefined)
Potency [1]: 0.183 mmol/kg/day

CCCc1c(OCCCCc2nn[nH]n2)ccc(C(C)=O)c1O
Potency [5]: 0.352 mmol/kg/day

Cc1ncc[nH]1
Potency [6]: 9.52 mmol/kg/day

O=c1cc[nH]c(=S)[nH]1
Potency [6]: 0.429 mmol/kg/day

O=C1C2(Cl)C3(Cl)C4(Cl)C(Cl)(Cl)C5(Cl)C3(Cl)C1(Cl)C5(Cl)C24Cl (centres undefined)
Potency [6]: 0.002 mmol/kg/day

CCN(Cc1cccc(S(=O)(=O)O)c1)c1ccc(C(=C2C=CC(=[N+](CC)Cc3cccc(S(=O)(=O)O)c3)C=C2)c2ccccc2S(=O)(=O)[O-])cc1
outcome [3]: inactive; no positive results

Cc1cccn2c1nc1ccc(N)nc12
Potency [7]: 0.0272 mmol/kg/day

ClCCOCCCl
Potency [8]: 0.0818 mmol/kg/day

CN(C)NC(=O)CCC(=O)O
Potency (TD50_Mouse_Note: TD50 is harmonic mean of more than one positive test, TargetSites_Mouse_Female: lung, vascular system): 6.43 mmol/kg/day

Cc1ccc([N+](=O)[O-])cc1N
Potency [7]: 1.82 mmol/kg/day

O=C1c2ccccc2C(=O)N1SC(Cl)(Cl)Cl
Potency (TD50_Mouse_Note: TD50 is harmonic mean of more than one positive test, TargetSites_Mouse_Female: small intestine): 5.23 mmol/kg/day

Cc1cc(Cl)ccc1OCC(=O)O
outcome [3]: inactive; no positive results

O=C(O)C(Cl)(Cl)Cl
Potency [6]: 3.57 mmol/kg/day

NNCCO
Potency [8]: 0.00522 mmol/kg/day

Nc1ccc(Oc2ccc(N)cc2)cc1
Potency (TD50_Mouse_Note: TD50 is harmonic mean of more than one positive test, TargetSites_Mouse_Female: harderian gland, liver, thyroid gland): 0.168 mmol/kg/day

CC(=O)Oc1ccccc1C(=O)O
outcome [3]: inactive; no positive results

CCCCC(CC)CO (centres undefined)
Potency [5]: 12.9 mmol/kg/day

ClC1=C(Cl)C2(Cl)C3C(Cl)OC(Cl)C3C1(Cl)C2(Cl)Cl (centres undefined)
outcome [3]: inactive; no positive results

CCCC[C@H](C)[C@@H](OC(=O)C[C@H](CC(=O)O)C(=O)O)[C@@H](C[C@H](C)C[C@@H](O)CCCC[C@@H](O)C[C@H](O)[C@H](C)N)OC(=O)C[C@H](CC(=O)O)C(=O)O
Potency [5]: 0.00941 mmol/kg/day

O=C(OOC(=O)c1ccccc1)c1ccccc1
outcome (TargetSites_Mouse_BothSexes: no positive results): inactive
